# According to article PMC12560410, “Multi spectroscopic investigations with molecular docking and molecular dynamics simulation of the binding mechanism of molnupiravir to bovine serum albumin” (BMC Chemistry, 2025):
# Tests used:
# [1] = biological target: T1, bovine serum albumin (BSA) (Bos taurus, UniProt P02769); experiment: Fluorescence quenching of BSA by MOL (Stern–Volmer and modified Stern–Volmer analysis, thermodynamics); assay type: binding; conditions: for Ksv (Stern–Volmer quenching constant) / n (number of binding sites) / Kd: pH 7.4; for Kd: read-out: Log Ka (converted)
# T1 construct: purchased BIOMARK laboratories (Pune, Maharashtra, India)
# T1 sequence (P02769 25-607): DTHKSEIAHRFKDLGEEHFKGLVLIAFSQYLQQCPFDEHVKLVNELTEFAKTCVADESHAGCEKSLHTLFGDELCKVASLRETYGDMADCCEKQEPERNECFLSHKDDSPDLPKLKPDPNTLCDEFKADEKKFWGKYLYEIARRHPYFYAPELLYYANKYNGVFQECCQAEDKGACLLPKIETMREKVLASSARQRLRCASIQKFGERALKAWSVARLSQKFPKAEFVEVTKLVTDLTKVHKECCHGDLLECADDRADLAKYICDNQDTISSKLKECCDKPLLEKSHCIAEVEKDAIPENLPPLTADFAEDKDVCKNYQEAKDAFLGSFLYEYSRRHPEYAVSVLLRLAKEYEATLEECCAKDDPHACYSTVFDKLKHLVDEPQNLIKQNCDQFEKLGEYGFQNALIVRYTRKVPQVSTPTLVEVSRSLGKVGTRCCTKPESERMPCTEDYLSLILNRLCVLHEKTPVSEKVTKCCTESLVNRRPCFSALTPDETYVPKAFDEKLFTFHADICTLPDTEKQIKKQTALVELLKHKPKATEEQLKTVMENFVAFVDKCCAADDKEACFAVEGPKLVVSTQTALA
# Procedure: The fluorescence of the tyrosine (Tyr) and tryptophan (Trp) residues observed for solutions that have a fixed BSA concentration 3 µM and different concentrations of MOL (30–180 µM) at pH 7.4. The emission spectra were obtained between 300 and 500 nm. The excitation wavelength was 295 nm, at temperatures 285, 290, 295, 303, and 308 K. […]
# Utilizing the Stern–Volmer equation, the quenching mechanism was identified (Eq. 1):1 [drawing 1]
# The fluorescence intensities of BSA in absence of MOL are indicated as [drawing 2] while those measured in the presence of MOL are referred to as [drawing 3] . The term [drawing 4] represents the Stern–Volmer quenching rate constant. MOL concentration represents the quencher concentration [drawing 5] .
# F^0/F was plotted versus [Q], then the slope was calculated to obtain the values of Ksv as shown in the Stern–Volmer equation (Eq. 1) to assess the experimental results as shown in Fig. 3.
# IFE-corrected fluorescence intensity values were calculated using the following formula: […]
# The modified Stern–Volmer equation is used to determine the stoichiometry (n) and equilibrium association constant (Ka), which govern how small molecules interact with specific binding sites on a macromolecule (Eq. 2).2 [drawing 7]
# where [drawing 8] represents the number of binding sites and [drawing 9] represents the binding constant, as calculated from the plots of log [(F0–F)/F] against log [Q]. The plot of the modified Stern–Volmer equation was illustrated in Fig. S2. […] The stoichiometry of the binding interaction concerning MOL and BSA was approximately 1:1, as indicated by the n value being close to unity.
# The intercept and slope of the plot of ln Ka vs. 1/T were used to determine ΔS (entropy change) and ΔH (enthalpy change), respectively in accordance with the Vant’s Hoff equation (Eq. 3), as shown in Table 2.
# Furthermore, the Gibbs–Helmholtz equation determines ΔG (Eq. 4).3 [drawing 10] 4 [drawing 11]
# where ΔG denotes the Gibbs free energy change and R denotes the universal gas constant (8.314 J mol^−1 k^−1) while T is the absolute temperature (K). […] The negative values of both ΔH and ΔS indicate that the binding of MOL to BSA is primarily governed by hydrogen bonding and van der Waals interactions rather than hydrophobic forces. The thermodynamic results, was supported by docking analysis, confirming that hydrogen bonding and van der Waals contacts are the dominant driving forces in MOL–BSA complex formation. […] Moreover, the spontaneity of the interaction could reflect the favorable conformational stability of the MOL-BSA complex.
# [2] = biological target: T1, bovine serum albumin (BSA); experiment: Site marker competition (indomethacin site I, diazepam site II) for MOL binding to BSA; conditions: 295 K, pH 7.4; for Kd: read-out: Log Ka (converted)
# Procedure: This study was conducted using two specific site probes: indomethacin for site I and diazepam for site II. In these experiments, the concentrations of BSA and the site probes were kept constant at 3 µM and 10 µM, respectively, while the concentration of MOL was varied from 30 to 180 µM. Fluorescence intensity was measured at 350 nm with excitation at 295 nm, and all measurements were carried out at 295 K and pH 7.4. The binding equilibrium constants (Ka) of MOL to BSA alone, indomethacin-BSA, and diazepam-BSA complexes were compared.
# The apparent binding constants (Ka) were calculated by plotting log[(F₀–F)/F] versus log[Q] in the absence and presence of site markers Figure S6.
# [3] = biological target: T1, bovine serum albumin (BSA); experiment: Effect of common ions on binding affinity of MOL to BSA; conditions: 297 K, pH 7.4
# Source text: […] […] These findings can be used for further investigations into how different ions influence the binding affinity of MOL to BSA.
# Ka′/Ka is the binding constant divided by the binding constant in the absence of the ion; r is the correlation coefficient.
# BSA = biological target: T2, BSA (Bos taurus, UniProt P02769); experiment: Synchronous fluorescence spectroscopy of BSA with MOL; assay type: binding, bovine; conditions: MOL 0–180 µM, pH 7.4
# T2 construct: purchased BIOMARK laboratories (Pune, Maharashtra, India)
# T2 sequence (P02769 25-607): as above
# Procedure: Initially, the synchronous fluorescence spectra of BSA were acquired at a concentration of 3µM, and then its mixtures with MOL ranged from 30 to 180 µM at pH 7.4. These spectra were obtained at spectral intervals of Δλ = 15 nm as well as Δλ = 60 nm, with a 10 mm path quartz cell and scanning rate of 1000 nanometers per minute (nm/min).
# The polarity of the surrounding environment of the fluorescent amino acids in BSA is influenced by ligand interaction, and this has been studied using synchronous fluorescence spectroscopy. In this study, a scanning interval (Δλ) of 60 nm and 15 nm was set between the excitation and emission wavelengths, allowing for the observation of polarity alterations surrounding tyrosine (Tyr) and tryptophan (Trp) residues, respectively.
# Spectra of BSA synchronous fluorescence were acquired for BSA solutions both with and without the addition of MOL (Fig. 4). […] The Ratios of Synchronous Fluorescence Quenching (RSFQ) were determined using Eq. 5 as follows: […]
# bovine serum albumin = biological target: T3, bovine serum albumin (Bos taurus, UniProt P02769); experiment: FT-IR spectroscopy of BSA with MOL; assay type: binding; conditions: BSA 3 µM, MOL 180 µM, pH 7.4
# T3 construct: purchased BIOMARK laboratories (Pune, Maharashtra, India)
# T3 sequence (P02769 25-607): as above
# Procedure: FT-IR spectra of 3 µM bovine serum albumin solution in tris-HCl buffer, BSA (3 µM) in the presence of MOL (180 µM), and MOL alone (180 µM) at pH 7.4 were recorded using Tensor27—S2887 FT-IR spectrometer (Bruker, Germany) from 4000 to 1000 cm^− 1. Baseline correction and water vapor subtraction were applied prior to analysis.
# FT-IR spectroscopy was utilized to examine the secondary structure of BSA in free, drug-bound forms and free drug by recording changes in spectra as shown in Fig. S5. However, slight differences were observed between these spectra. […] The results from the UV absorption and fluorescence analysis are consistent with this observation.
# [4] = parameters: method as in PMID 39912659, PMID 37526305; conditions: following oral administration; hydrolyzed by esterases to NHC; cited from earlier work
# [5] = van't Hoff plot of ln Ka vs 1/T, 285–308 K
smiles,measurement,setting,value
"CC(C)C(=O)OC[C@H]1O[C@@H](n2ccc(NO)nc2=O)[C@H](O)[C@@H]1O [MOL, Molnupiravir]",ΔG (Gibbs free energy change),[1]; 285 K,-23.915 KJ mol ^− 1
same,Ksv (Stern–Volmer quenching constant),[1]; 285 K,11100 L/mol
same,n (number of binding sites),[1]; 285 K,1.072
same,Kd,[1]; 285 K,41.4 µM
same,ΔG (Gibbs free energy change),[1]; 290 K,-23.546 KJ mol ^− 1
same,Ksv (Stern–Volmer quenching constant),[1]; 290 K,9635 L/mol
same,n (number of binding sites),[1]; 290 K,1.077
same,Kd,[1]; 290 K,57.4 µM
same,difference between IFE-corrected and uncorrected Ksv,[1]; 295 K,0.9%
same,ΔG (Gibbs free energy change),[1]; 295 K,-23.252 KJ mol ^− 1
same,corrected Stern–Volmer constant (Ksv),"[1]; 295 K, inner filter effect (IFE) corrected",7160 L/mol
same,Ksv (Stern–Volmer quenching constant),[1]; 295 K,7096 L/mol
same,n (number of binding sites),[1]; 295 K,1.086
same,Kd,[1]; 295 K,76.3 µM
same,uncorrected Stern–Volmer constant (Ksv),"[1]; 295 K, uncorrected",7096 L/mol
same,ΔG (Gibbs free energy change),[1]; 303 K,-22.276 KJ mol ^− 1
same,Ksv (Stern–Volmer quenching constant),[1]; 303 K,5288 L/mol
same,n (number of binding sites),[1]; 303 K,1.066
same,Kd,[1]; 303 K,144 µM
same,ΔG (Gibbs free energy change),[1]; 308 K,-21.618 KJ mol ^− 1
same,Ksv (Stern–Volmer quenching constant),[1]; 308 K,3800 L/mol
same,n (number of binding sites),[1]; 308 K,1.055
same,Kd,[1]; 308 K,216 µM
same,fluorescence quenching mechanism,[1]; Ksv inversely proportional to temperature,static interaction
same,ΔH (enthalpy change),[1]; [5],-52.434 KJ.mol ^− 1
same,ΔS (entropy change),[1]; [5],-99.63 J mol^− 1K^− 1
same,Kd,"[2]; in presence of diazepam (site II probe, 10 µM)",361 µM
same,Kd,"[2]; in presence of indomethacin (site I probe, 10 µM)",56.3 µM
same,preferential binding site on BSA,[2]; site marker displacement,Sudlow’s site II
same,Ka’/ Ka (binding constant divided by binding constant in absence of the ion),[3]; Ca^2+ added (75 µM),0.9046
same,Kd,"[3]; Ca^2+ added (75 µM), read-out: Ka’ (binding constant) (converted)",674 µM
same,Ka’/ Ka (binding constant divided by binding constant in absence of the ion),[3]; Co^2+ added (75 µM),1.6233
same,Kd,"[3]; Co^2+ added (75 µM), read-out: Log Ka (converted)",375 µM
same,Ka’/ Ka (binding constant divided by binding constant in absence of the ion),[3]; Cu^2+ added (75 µM),0.2573
same,Kd,"[3]; Cu^2+ added (75 µM), read-out: Log Ka (converted)",2370 µM
same,Ka’/ Ka (binding constant divided by binding constant in absence of the ion),[3]; No ion,1
same,Kd,"[3]; No ion, read-out: Ka’ (binding constant) (converted)",609 µM
same,red shift in λmax of BSA synchronous fluorescence,BSA; Δλ = 15 nm (Tyr residues),about 2 nm
same,shift in λmax of BSA synchronous fluorescence,BSA; Δλ = 60 nm,no shift was detected
same,amide band of BSA after addition of MOL,bovine serum albumin,shifted from 1610 cm^−1 to 1636 cm^−1
same,systemic plasma concentration of parent drug,[4],no significant concentrations of the parent drug are detected systemically in plasma
